In patent US11286242B2 (priority 2018, dated 2022):

What was measured:
Pyricularia oryzae = assay: microbe, parasite or virus in culture; format: cell-based; details: 168 h, read-out: control compared to the untreated check
Phakopsora pachyrhizi = Phakopsora pachyrhizi test in soybean, preventive spray; format: in vivo; details: preventive spray on soybean plants, inoculated one day after treatment, greenhouse 25° C., 90% relative humidity, read-out: control (efficacy, disease severity rating) compared to the untreated check
Experimental: Example 8: Phakopsora pachyrhizi Test in Soybean
Compounds were dissolved in 2% DMSO/Acetone & then mixed with water to the calibrated spray volume of 50 mL and poured into the spray bottles for further applications.
To test the preventive activity of compounds, healthy young soybean plants raised in the greenhouse were sprayed with active compound preparation at the stated application rates inside the spray cabinets using hallowcone nozzles. One day after treatment, the plants were inoculated with spore suspension containing 2.1×10^6 Phakopsora pachyrhizi inoculum. The inoculated plants were then kept in greenhouse chamber at 25° C. temperature & 90% relative humidity for disease expression.
A visual assessment of compound's performance was carried out by rating the disease severity (0-100% scale) on treated plants on 3, 7, 10 & 15 days after application. Efficacy (% control) of the compounds was calculated by comparing the disease rating in the treatment with the one of the untreated control. The sprayed plants were also assessed for compound's plant compatibility by recording symptoms like necrosis, chlorosis & stunting.

Alternaria solani = Alternaria solani (early blight of tomato/potato) radial mycelial growth on Potato Dextrose Agar; format: cell-based; details: 168 h, Potato Dextrose Agar, 25° C., 60% relative humidity, seven days, read-out: control compared to the untreated check
Experimental: Example 4: Alternaria solani (Early Blight of Tomato/Potato)
Compounds were dissolved in 0.3% DMSO & then added to Potato Dextrose Agar medium just prior to dispensing it into petri dishes. 5 mL medium with compound in the desired concentration was dispensed into 60 mm sterile petri-plates. After solidification each plate was seeded with 5 mm size mycelial disc taken form periphery of actively growing virulent culture plate. Plates were incubated in growth chambers at 25° C. temperature and 60% relative humidity for seven days and radial growth was measured.

CS(=O)(=NC(=O)c1ccc(-c2noc(C(F)(F)F)n2)cc1)c1ccccc1F (centres unmarked) [Compound 3, N-((2-fluorophenyl)(methyl)(oxo)-λ^6-sulfanylidene)-4-(5-(trifluoromethyl)-1,2,4-oxadiazol-3-yl)benzamide]
inhibition of growth at 300 ppm (Pyricularia oryzae): > 70%
pest or weed control at 500 ppm (Phakopsora pachyrhizi): > 90%

CS(=O)(=Nc1ccc(-c2noc(C(F)(F)F)n2)cc1)c1ccc(C(F)(F)F)cc1 (centres unmarked) [Compound 19, methyl((4-(5-(trifluoromethyl)-1,2,4-oxadiazol-3-yl)phenyl)imino)(4-(trifluoromethyl)phenyl)-λ^6-sulfanone]
inhibition of growth at 300 ppm (Pyricularia oryzae): > 70%
pest or weed control at 500 ppm (Phakopsora pachyrhizi): > 90%

CS(=O)(=NCc1ccc(-c2noc(C(F)(F)F)n2)cc1)c1ccccn1 (centres unmarked) [Compound 27, methyl(pyridin-2-yl)((4-(5-(trifluoromethyl)-1,2,4-oxadiazol-3-yl)benzyl)imino)-λ^6-sulfanone]
inhibition of growth at 300 ppm (Pyricularia oryzae): > 70%
pest or weed control at 500 ppm (Phakopsora pachyrhizi): > 90%

CS(=O)(Cc1cccc(F)c1F)=NC(=O)c1ccc(-c2noc(C(F)(F)F)n2)cc1 (centres unmarked) [Compound 33, N-((2,3-difluorobenzyl)(methyl)(oxo)-λ^6-sulfaneylidene)-4-(5-(trifluoromethyl)-1,2,4-oxadiazol-3-yl)benzamide]
inhibition of growth at 300 ppm (Alternaria solani): > 70%

CS(=O)(=NC(=O)c1ccc(-c2noc(C(F)(F)F)n2)cc1)c1ccc(F)cc1F (centres unmarked) [Compound 47, N-((2,4-difluorophenyl)(methyl)(oxo)-λ^6-sulfaneylidene)-4-(5-(trifluoromethyl)-1,2,4-oxadiazol-3-yl)benzamide]
inhibition of growth at 300 ppm (Alternaria solani): > 70%
pest or weed control at 500 ppm (Phakopsora pachyrhizi): > 90%

CS(=O)(Cc1ccccn1)=NC(=O)c1ccc(-c2noc(C(F)(F)F)n2)cc1 (centres unmarked) [Compound 52, N-(methyl(oxo)(pyridin-2-ylmethyl)-λ^6-sulfaneylidene)-4-(5-(trifluoromethyl)-1,2,4-oxadiazol-3-yl)benzamide]
inhibition of growth at 300 ppm (Alternaria solani): > 70%
pest or weed control at 500 ppm (Phakopsora pachyrhizi): > 90%

COc1ccc(S(C)(=O)=NC(=O)c2ccc(-c3noc(C(F)(F)F)n3)cc2)c(OC)c1 (centres unmarked) [Compound 56, N-((2,4-dimethoxyphenyl)(methyl)(oxo)-λ^6-sulfaneylidene)-4-(5-(trifluoromethyl)-1,2,4-oxadiazol-3-yl)benzamide]
inhibition of growth at 300 ppm (Alternaria solani): > 70%
pest or weed control at 500 ppm (Phakopsora pachyrhizi): > 90%

CS(=O)(Cc1ccncc1)=NC(=O)c1ccc(-c2noc(C(F)(F)F)n2)cc1 (centres unmarked) [Compound 59, N-(mehtyl(oxo)(pyridin-4-ylmethyl)-λ^6-sulfaneylidene)-4-(5-(trifluoromethyl)-1,2,4-oxadiazol-3-yl)benzamide]
inhibition of growth at 300 ppm (Alternaria solani): > 70%
pest or weed control at 500 ppm (Phakopsora pachyrhizi): > 90%

CS(=O)(Cc1cc(F)ccc1F)=NC(=O)c1ccc(-c2noc(C(F)(F)F)n2)cc1 (centres unmarked) [Compound 62, N-((2,5-difluorobenzyl)(methyl)(oxo)-λ^6-sulfaneylidene)-4-(5-(trifluoromethyl)-1,2,4-oxadiazol-3-yl)benzamide]
inhibition of growth at 300 ppm (Alternaria solani): > 70%
pest or weed control at 500 ppm (Phakopsora pachyrhizi): > 90%

COc1ccc(S(C)(=O)=NC(=O)c2cccc(-c3noc(C(F)(F)F)n3)c2)cc1 (centres unmarked) [Compound 71, N-((4-methoxyphenyl)(methyl)(oxo)-λ^6-sulfaneylidene)-3-(5-(trifluoromethyl)-1,2,4-oxadiazol-3-yl)benzamide]
inhibition of growth at 300 ppm (Alternaria solani): > 70%
pest or weed control at 500 ppm (Phakopsora pachyrhizi): > 90%

CS(=O)(=NC(=O)c1cccc(-c2noc(C(F)(F)F)n2)c1)c1nccs1 (centres unmarked) [Compound 73, N-(methyl(oxo)(thiazol-2-yl)-λ^6-sulfaneylidene)-3-(5-(trifluoromethyl)-1,2,4-oxadiazol-3-yl)benzamide]
inhibition of growth at 300 ppm (Alternaria solani): > 70%

CS(=O)(Cc1ccc(C#N)cc1)=NC(=O)c1cccc(-c2noc(C(F)(F)F)n2)c1 (centres unmarked) [Compound 75, N-((4-cyanobenzyl)(methyl)(oxo)-λ^6-sulfaneylidene)-3-(5-(trifluoromethyl)-1,2,4-oxadiazol-3-yl)benzamide]
inhibition of growth at 300 ppm (Alternaria solani): > 70%
pest or weed control at 500 ppm (Phakopsora pachyrhizi): > 90%

CS(=O)(Cc1ccccc1F)=Nc1ccc(-c2noc(C(F)(F)F)n2)cc1 (centres unmarked) [Compound 94, (2-fluorobenzyl)(methyl)((4-(5-(trifluoromethyl)-1,2,4-oxadiazol-3-yl)phenyl)imino)-λ^6-sulfanone]
inhibition of growth at 300 ppm (Alternaria solani): > 70%

CS(=O)(Cc1ccc(Cl)c(F)c1)=Nc1ccc(-c2noc(C(F)(F)F)n2)cc1 (centres unmarked) [Compound 99, (4-chloro-3-florobenzyl)(methyl)((4-(5-(trifluoromethyl)-1,2,4-oxadiazol-3-yl)phenyl)imino)-λ^6-sulfanone]
inhibition of growth at 300 ppm (Alternaria solani): > 70%
pest or weed control at 500 ppm (Phakopsora pachyrhizi): > 90%

Cc1csc(S(C)(=O)=Nc2ccc(-c3noc(C(F)(F)F)n3)cc2)n1 (centres unmarked) [Compound 117, methyl(4-methylthiazol-2-yl)((4-(5-(trifluoromethyl)-1,2,4-oxadiazol-3-yl)phenyl)imino)-λ^6-sulfanone]
inhibition of growth at 300 ppm (Pyricularia oryzae): > 70%
inhibition of growth at 300 ppm (Alternaria solani): > 70%

Cc1ccc(S(C)(=O)=NCc2ccc(-c3noc(C(F)(F)F)n3)cc2)cc1 (centres unmarked) [Compound 137, methyl(p-tolyl)((4-(5-(trifluoromethyl)-1,2,4-oxadiazol-3-yl)benzyl)imino)-λ^6-sulfanone]
inhibition of growth at 300 ppm (Pyricularia oryzae): > 70%
inhibition of growth at 300 ppm (Alternaria solani): > 70%

CS(=O)(=NCc1cccc(-c2noc(C(F)(F)F)n2)c1)c1ccccc1F (centres unmarked) [Compound 148, (2-fluorophenyl)(methyl)((3-(5-(trifluoromethyl)-1,2,4-oxadiazol-3-yl)benzyl)imino)-λ^6-sulfanone]
inhibition of growth at 300 ppm (Pyricularia oryzae): > 70%
inhibition of growth at 300 ppm (Alternaria solani): > 70%

CC(C)S(=O)(=NCc1ccc(-c2noc(C(F)(F)F)n2)cc1)c1ccc(Cl)cc1 (centres unmarked) [Compound 152, (4-chlorophenyl)(isopropyl)((4-(5-(trifluoromethyl)-1,2,4-oxadiazol-3-yl)benzyl)imino)-λ^6-sulfanone]
inhibition of growth at 300 ppm (Pyricularia oryzae): > 70%

COc1cccc(S(=O)(=O)NC(=O)c2ccc(-c3noc(C(F)(F)F)n3)cc2)c1 [Compound 158, N-((3-methoxyphenyl)sulfonyl)-4-(5-(trifluoromethyl)-1,2,4-oxadiazol-3-yl)benzamide]
inhibition of growth at 300 ppm (Alternaria solani): > 70%

O=C(NS(=O)(=O)c1ccc(Br)cc1)c1ccc(-c2noc(C(F)(F)F)n2)cc1 [Compound 162, N-((4-bromophenyl)sulfonyl)-4-(5-(trifluoromethyl)-1,2,4-oxadiazol-3-yl)benzamide]
inhibition of growth at 300 ppm (Alternaria solani): > 70%

O=C(NS(=O)(=O)c1c(Cl)cccc1Cl)c1ccc(-c2noc(C(F)(F)F)n2)cc1 [Compound 163, N-((2,6-dichlorophenyl)sulfonyl)-4-(5-(trifiuoromethyl)-1,2,4-oxadiazol-3-yl)benzamide]
inhibition of growth at 300 ppm (Alternaria solani): > 70%

CS(=O)(=Nc1ccc(-c2noc(C(F)(F)F)n2)cc1F)c1ccccc1F (centres unmarked) [Compound 165, ((2-fluoro-4-(5-(trifluoromethyl)-1,2,4-oxadiazol-3-yl)phenyl)imino)(2-fluorophenyl)(methyl)-λ^6-sulfanone]
inhibition of growth at 300 ppm (Pyricularia oryzae): > 70%

CS(=O)(=Nc1ccc(-c2noc(C(F)(F)F)n2)cc1F)c1ccccc1 (centres unmarked) [Compound 166, ((2-fluoro-4-(5-(trifluoromethyl)-1,2,4-oxadiazol-3-yl)phenyl)imino)(methyl)(phenyl)-λ^6-sulfanone]
inhibition of growth at 300 ppm (Pyricularia oryzae): > 70%

CS(=O)(=Nc1ccc(-c2noc(C(F)(F)F)n2)cc1F)c1ccc(Cl)cc1 (centres unmarked) [Compound 167, (4-chlorophenyl)((2-fluoro-4-(5-(trifluoromethyl)-1,2,4-oxadiazol-3-yl)phenyl)imino)(methyl)-λ^6-sulfanone]
inhibition of growth at 300 ppm (Pyricularia oryzae): > 70%

CS(=O)(=Nc1ccc(-c2noc(C(F)(F)F)n2)cc1F)c1cccc(F)c1 (centres unmarked) [Compound 169, ((2-fluoro-4-(5-(trifluoromethyl)-1,2,4-oxadiazol-3-yl)phenyl)imino)(3-fluorophenyl)(methyl)-λ^6-sulfanone]
inhibition of growth at 300 ppm (Pyricularia oryzae): > 70%

COc1ccc(S(C)(=O)=Nc2ccc(-c3noc(C(F)(F)F)n3)cc2F)cc1 (centres unmarked) [Compound 171, ((2-fluoro-4-(5-(trifluoromethyl)-1,2,4-oxadiazol-3-yl)phenyl)imino)(4-methoxyphenyl)(methyl)-λ^6-sulfanone]
inhibition of growth at 300 ppm (Pyricularia oryzae): > 70%

CS(=O)(=NCc1cccc(Cl)c1)c1ccc(-c2noc(C(F)(F)F)n2)cc1 (centres unmarked) [Compound 182, ((3-chlorobenzyl)imino)(methyl)(4-(5-(trifluoromethyl)-1,2,4-oxadiazol-3-yl)phenyl)-λ^6-sulfanone]
inhibition of growth at 300 ppm (Pyricularia oryzae): > 70%

CS(=O)(=NCc1ccc(F)cc1)c1ccc(-c2noc(C(F)(F)F)n2)cc1 (centres unmarked) [Compound 183]
inhibition of growth at 300 ppm (Pyricularia oryzae): > 70%

CS(=O)(=NCc1ccc(F)cc1F)c1ccc(-c2noc(C(F)(F)F)n2)cc1 (centres unmarked) [Compound 184, ((2,4-difluorobenzyl)imino)(methyl)(4-(5-(trifluoromethyl)-1,2,4-oxadiazol-3-yl)phenyl)-λ^6-sulfanone]
inhibition of growth at 300 ppm (Pyricularia oryzae): > 70%

CS(=O)(=NCc1cccc(F)c1)c1ccc(-c2noc(C(F)(F)F)n2)cc1 (centres unmarked) [Compound 185, ((3-fluorobenzyl)imino)(methyl)(4-(5-(trifluoromethyl)-1,2,4-oxadiazol-3-yl)phenyl)-λ^6-sulfanone]
inhibition of growth at 300 ppm (Pyricularia oryzae): > 70%
